Measurements taken from the supplement of paper PMC8617591.

What was measured:
[1] = system: Mycobacterium tuberculosis Erdman (autoluminescent); assay: AUC25, normalised area under dose response up to IC25 (three-drug combination) (fraction (0-1)); higher = more potent at low dose
Description: (§1)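 DiaMOND equipotent three-drug combination dose responses (10 doses, 1.5- or 2-fold spacing, centred on IC90) against autoluminescent M. tuberculosis Erdman in 8 in vitro models. Read-out is OD600, or luminescence for the intracellular and dormancy models, normalised to untreated wells. Hill-fit Einf, AUC25 and GRinf are potency metrics; FIC50 and FIC90 are total Loewe fractional inhibitory concentrations as log2 (negative = synergy).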

[2] = system: Mycobacterium tuberculosis Erdman (autoluminescent); assay: GRinf, maximum normalised growth rate inhibition (three-drug combination) (unitless (-1 to 1)); higher = less effect (negative = killing)
Description: as §1

[3] = system: Mycobacterium tuberculosis Erdman (autoluminescent); assay: total FIC50 (Loewe) at 50% inhibition, three-drug combination (log2); higher = more antagonistic
Description: as §1

[4] = system: Mycobacterium tuberculosis Erdman (autoluminescent); assay: total FIC90 (Loewe) at 90% inhibition, three-drug combination (log2); higher = more antagonistic
Description: as §1

[5] = system: Mycobacterium tuberculosis Erdman (autoluminescent); assay: Einf, fitted maximum growth inhibition of three-drug combination (fraction); higher = stronger maximal inhibition
Description: as §1

COc1nc2ccc(Br)cc2cc1[C@@H](c1ccccc1)[C@@](O)(CCN(C)C)c1cccc2ccccc12 [bedaquiline] + CC[C@@H](CO)NCCN[C@@H](CC)CO [ethambutol] + CC(=O)NC[C@H]1CN(c2ccc(N3CCOCC3)c(F)c2)C(=O)O1 [linezolid]
Details	AUC25, [1]	Einf, [5]	GRinf, [2]	total FIC50, [3]	total FIC90, [4]
in vitro model: acidic pH 5.7, time point: constant (~7 days, model-specific)	0.0748	0.822	-0.403	-0.0157	–
in vitro model: acidic pH 5.7, time point: terminal (~4-5 doublings, model-specific)	0.0941	0.977	-0.395	0.509	0.711
in vitro model: intracellular J774, time point: constant = terminal	–	0.922	-0.379	–	0.819

Details	AUC25, [1]	Einf, [5]	GRinf, [2]	total FIC50, [3]	total FIC90, [4]
in vitro model: butyrate, time point: constant (~7 days, model-specific)	0.0774	0.931	-0.0747	0.429	–
in vitro model: butyrate, time point: terminal (~4-5 doublings, model-specific)	0.0539	0.964	-0.0521	0.371	-0.223
in vitro model: cholesterol 0.05 mM, time point: constant (~7 days, model-specific)	0.151	0.783	-0.458	0.52	–
in vitro model: cholesterol 0.05 mM, time point: terminal (~4-5 doublings, model-specific)	0.159	0.946	-0.703	8.47	–
in vitro model: cholesterol-high 0.2 mM, time point: constant (~7 days, model-specific)	0.0976	0.984	-1	0.98	–
in vitro model: cholesterol-high 0.2 mM, time point: terminal (~4-5 doublings, model-specific)	0.114	1	-0.946	0.45	1.37
in vitro model: dormancy (butyrate + nitrate, low O2), time point: constant (~7 days, model-specific)	0.124	0.886	0.486	1.37	–
in vitro model: dormancy (butyrate + nitrate, low O2), time point: terminal (~4-5 doublings, model-specific)	0.127	0.989	-0.414	0.241	0.872
in vitro model: standard 7H9 glycerol, time point: constant = terminal	0.0754	0.943	-0.0326	0.387	–
in vitro model: valerate, time point: constant (~7 days, model-specific)	0.106	0.915	-0.161	0.715	–
in vitro model: valerate, time point: terminal (~4-5 doublings, model-specific)	0.0559	0.954	-0.121	0.85	-0.19

CC[C@@H](CO)NCCN[C@@H](CC)CO [ethambutol] + CC(=O)NC[C@H]1CN(c2ccc(N3CCOCC3)c(F)c2)C(=O)O1 [linezolid] + O=[N+]([O-])c1cn2c(n1)OC[C@@H](OCc1ccc(OC(F)(F)F)cc1)C2 [pretomanid]
Details	AUC25, [1]	Einf, [5]	GRinf, [2]	total FIC50, [3]	total FIC90, [4]
in vitro model: acidic pH 5.7, time point: constant (~7 days, model-specific)	0.134	0.896	-0.388	0.236	–
in vitro model: acidic pH 5.7, time point: terminal (~4-5 doublings, model-specific)	0.0878	0.967	-0.322	1.28	1.01
in vitro model: intracellular J774, time point: constant = terminal	–	0.975	-0.561	–	0.0435

Details	AUC25, [1]	Einf, [5]	GRinf, [2]	total FIC50, [3]	total FIC90, [4]
in vitro model: butyrate, time point: constant (~7 days, model-specific)	0.0842	0.911	0.0181	0.478	–
in vitro model: butyrate, time point: terminal (~4-5 doublings, model-specific)	0.0626	0.944	0.0489	0.404	0.144
in vitro model: cholesterol 0.05 mM, time point: constant (~7 days, model-specific)	0.12	0.731	-0.14	-0.149	–
in vitro model: cholesterol 0.05 mM, time point: terminal (~4-5 doublings, model-specific)	0.146	0.921	-0.207	-1.06	–
in vitro model: cholesterol-high 0.2 mM, time point: constant (~7 days, model-specific)	0.0978	0.905	-0.175	0.567	–
in vitro model: cholesterol-high 0.2 mM, time point: terminal (~4-5 doublings, model-specific)	0.104	1	-0.831	0.339	0.921
in vitro model: dormancy (butyrate + nitrate, low O2), time point: constant (~7 days, model-specific)	0.142	0.891	-0.209	1.03	–
in vitro model: dormancy (butyrate + nitrate, low O2), time point: terminal (~4-5 doublings, model-specific)	0.0963	0.981	-0.881	-0.0848	-0.19
in vitro model: standard 7H9 glycerol, time point: constant = terminal	0.0762	0.904	0.0621	0.648	–
in vitro model: valerate, time point: constant (~7 days, model-specific)	0.153	0.901	-0.16	-0.171	–
in vitro model: valerate, time point: terminal (~4-5 doublings, model-specific)	0.115	0.923	-0.0362	-0.419	2.13

NC(=O)c1cnccn1 [pyrazinamide] + CO[C@H]1/C=C/O[C@@]2(C)Oc3c(C)c(O)c4c(O)c(c(/C=N/N5CCN(C6CCCC6)CC5)c(O)c4c3C2=O)NC(=O)/C(C)=C\C=C\[C@H](C)[C@H](O)[C@@H](C)[C@@H](O)[C@@H](C)[C@H](OC(C)=O)[C@@H]1C [rifapentine] + CO[C@H]1/C=C/O[C@@]2(C)Oc3c(C)c(O)c4c(O)c(c(/C=N/N5CCN(C)CC5)c(O)c4c3C2=O)NC(=O)/C(C)=C\C=C\[C@H](C)[C@H](O)[C@@H](C)[C@@H](O)[C@@H](C)[C@H](OC(C)=O)[C@@H]1C [rifampicin]
Details	AUC25, [1]	Einf, [5]	GRinf, [2]	total FIC50, [3]	total FIC90, [4]
in vitro model: acidic pH 5.7, time point: constant (~7 days, model-specific)	0.0803	0.896	-0.145	-0.178	–
in vitro model: acidic pH 5.7, time point: terminal (~4-5 doublings, model-specific)	0.0647	0.979	-0.174	-0.202	-1.03
in vitro model: intracellular J774, time point: constant = terminal	–	0.97	-0.213	–	-0.0544

Details	AUC25, [1]	Einf, [5]	GRinf, [2]	total FIC50, [3]	total FIC90, [4]
in vitro model: butyrate, time point: constant (~7 days, model-specific)	0.117	0.881	0.12	0.0365	1.12
in vitro model: butyrate, time point: terminal (~4-5 doublings, model-specific)	0.103	0.952	0.104	0.198	0.732
in vitro model: cholesterol 0.05 mM, time point: constant (~7 days, model-specific)	0.115	0.629	0.0861	–	–
in vitro model: cholesterol 0.05 mM, time point: terminal (~4-5 doublings, model-specific)	0.0851	0.89	-0.108	0.707	–
in vitro model: cholesterol-high 0.2 mM, time point: constant (~7 days, model-specific)	0.0773	0.925	-0.227	0.97	–
in vitro model: cholesterol-high 0.2 mM, time point: terminal (~4-5 doublings, model-specific)	0.0817	1	-0.793	1.26	1.04
in vitro model: dormancy (butyrate + nitrate, low O2), time point: constant (~7 days, model-specific)	0.083	0.871	0.235	-0.0928	-0.329
in vitro model: dormancy (butyrate + nitrate, low O2), time point: terminal (~4-5 doublings, model-specific)	0.0472	0.977	-0.125	-0.147	-0.16
in vitro model: standard 7H9 glycerol, time point: constant = terminal	0.0549	0.884	0.17	-0.259	–
in vitro model: valerate, time point: constant (~7 days, model-specific)	0.0552	0.833	0.0781	0.198	–
in vitro model: valerate, time point: terminal (~4-5 doublings, model-specific)	0.0295	0.925	0.0607	0.142	-0.0108
